In brackets after ≈: the same amount, converted by molar mass. Like-named read-outs stand apart in the source and are kept apart here.
Legend:
[1] = Solubility of etravirine in various media by phase solubility analysis (HPLC-UV); assay type: physicochemical; details: for solubility at 72 h: thermodynamic from solid
Experimental: The solubility of etravirine was determined in water, various oils and some organic solvents by phase solubility analysis. Excess drug was added into 20 ml screw-capped scintillation vials containing 5 ml of the tested solvents. The vials were rotated end-over-end at a constant speed on shaker (EBERBACH Corporation, Ann Arbor, Mich.) at room temperature for 3 days (72 hours). The samples were then subjected to centrifugation on a laboratory centrifuge at 13,000 rpm for 15 minutes. Aliquot of the supernatant was diluted with DMSO to the proper concentration before they were analyzed by high-performance liquid chromatography (HPLC) using UV detector.
The HPLC system involved Waters 600 pump, 2487 UV detector and 717 plus auto sampler (Waters Corporation, Milford, Mass.). Separations were done on a 4.6×150 mm, 3.5 μm XTerra MS-C18 column (Waters Corporation, Milford, Mass.). The flow rate was set at 1 ml/min and the wavelength at 304 nm. Chromatographic data acquisition, peak integration and quantification were performed using the Empower software package by Waters Corporation. Mobile phase solution A consisted of 20 mM potassium dihydrogen phosphate aqueous solution and solution B consisted of acetonitrile (40% solution A+60% solution B). pH was adjusted to 3.2 using phosphoric acid. Solvents were regularly prepared prior to each series of analysis.

[2] = Pharmacokinetic / oral bioavailability study in rats (LC-MS/MS of plasma); assay type: in vivo; details: male, Sprague-Dawley, rat
Experimental: Male Sprague-Dawley rats (250-350 g, Harlan Laboratory Inc., Indianapolis, Ind.) were housed in stainless steel cages and had free access to food and water. They were acclimated to the animal care facility for at least 7 days before the start of the study. To facilitate the withdrawal of timed, multiple blood samples from each animal, the right jugular vein of each animal was cannulated one day prior to drug administration. The cannulas were flushed daily with 0.5 mL sterile heparinized saline (100 units/ml). Under ketamine:acetopromazine:xylazine (50:3.3:3.3 mg/kg ip) anesthesia, silicone elastomer tubing (0.02×0.037 in) was inserted into the jugular vein, secured with a silk suture, and exteriorized in the dorsal infrascapular area. The surgical incision was prophylactically treated with nitrofurazone wound powder and closed with surgical staples.
Animals were allowed free access to food and water at all times. The jugular veins of the rats were cannulated under anesthesia the day before the study. All in vivo studies were initiated between 8:00 am and 9:00 am to eliminate possible circadian variation. The animals were fasted overnight with water allowed ad libitum before oral dosing.
The in vivo study consists of four rat groups. […] The second group is a reference group (n=5) which was given an oral 200 mg/kg administration of a suspension of the commercial Intelence® tablets in 1% Tween 80. […] Oral administration was performed using an animal feeding needle (18 in.×3 in. W; 2¼ mm Ball). Multiple blood samples (0.25 mL) were collected (from the jugular vein cannula) immediately before dosing and at 0.5, 1, 1.5, 2, 3, 4, 5, 6, 8, 10 and 24 hours after dosing. An aliquot of each plasma sample was stored at −70° C. pending LC-MS/MS assay.
Etravirine concentrations in rat plasma was analyzed using a sensitive and accurate liquid chromatographic-tandem mass spectrometry (LC-MS/MS) method developed in the laboratory (10). […] The column effluent was monitored using a 3200 QTRAP® mass spectrum, which is a hybrid triple quadruple linear ion trap equipped with a Turbolonspray ion source. […]

p-gp = p-gp (Homo sapiens, UniProt P08183); details: in vitro; read-out: apparent IC50 (inhibitor of p-gp); cited from earlier work
[3] = cited from earlier work; for Biopharmaceutics Classification System class: low water solubility and permeability
[4] = cited from earlier work
plasma proteins = details: cited from earlier work

Chain of p-gp (P08183 whole entry): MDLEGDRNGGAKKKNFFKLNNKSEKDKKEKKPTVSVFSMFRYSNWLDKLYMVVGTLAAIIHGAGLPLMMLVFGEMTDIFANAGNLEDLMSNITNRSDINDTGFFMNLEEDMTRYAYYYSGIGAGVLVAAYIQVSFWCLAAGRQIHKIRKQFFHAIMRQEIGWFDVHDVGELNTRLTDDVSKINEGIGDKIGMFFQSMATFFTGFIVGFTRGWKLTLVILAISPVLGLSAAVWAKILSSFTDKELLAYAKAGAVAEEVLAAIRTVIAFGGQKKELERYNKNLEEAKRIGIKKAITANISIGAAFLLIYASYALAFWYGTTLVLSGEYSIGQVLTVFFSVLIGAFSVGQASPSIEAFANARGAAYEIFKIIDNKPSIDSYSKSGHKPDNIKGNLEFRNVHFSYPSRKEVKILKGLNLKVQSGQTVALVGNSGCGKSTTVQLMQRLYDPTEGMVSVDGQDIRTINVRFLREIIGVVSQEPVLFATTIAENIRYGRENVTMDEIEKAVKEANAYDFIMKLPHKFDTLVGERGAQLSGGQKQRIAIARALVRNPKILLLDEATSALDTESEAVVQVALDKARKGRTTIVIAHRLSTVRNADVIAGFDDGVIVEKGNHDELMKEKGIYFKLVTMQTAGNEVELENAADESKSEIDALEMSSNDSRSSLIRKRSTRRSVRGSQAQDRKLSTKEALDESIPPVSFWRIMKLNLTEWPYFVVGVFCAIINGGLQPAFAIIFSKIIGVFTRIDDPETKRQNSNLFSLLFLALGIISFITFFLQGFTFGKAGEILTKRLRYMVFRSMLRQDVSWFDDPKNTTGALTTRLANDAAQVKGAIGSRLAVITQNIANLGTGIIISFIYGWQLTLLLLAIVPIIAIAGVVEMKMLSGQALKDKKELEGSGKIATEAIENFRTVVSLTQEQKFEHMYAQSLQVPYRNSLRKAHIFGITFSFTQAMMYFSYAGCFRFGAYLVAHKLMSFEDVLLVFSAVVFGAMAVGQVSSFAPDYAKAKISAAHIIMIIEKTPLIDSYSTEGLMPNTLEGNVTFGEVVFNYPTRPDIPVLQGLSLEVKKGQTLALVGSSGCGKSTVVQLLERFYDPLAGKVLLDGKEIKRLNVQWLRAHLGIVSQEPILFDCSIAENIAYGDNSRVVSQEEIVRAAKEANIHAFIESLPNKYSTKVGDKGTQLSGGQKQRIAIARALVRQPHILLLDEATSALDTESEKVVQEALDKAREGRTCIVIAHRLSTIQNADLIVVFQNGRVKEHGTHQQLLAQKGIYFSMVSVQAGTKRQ

- solubility at 72 h ([1]; distilled water, water, read-out: intrinsic solubility): 3.9 µg/mL (≈ 0.00896 mM)
- solubility (descriptive) ([1]; in DMSO and 1-methyl-2-pyrrolidinone): freely soluble
- solubility (descriptive) ([1]; in PEG 400, Tween 80, Cremophore EL, Tween 20, and Labrasol): soluble
- solubility (descriptive) ([1]; in corn oil, soybean oil and olive oil): very slightly soluble
- solubility (descriptive) ([1]; in peanut oil, Caproyl 90): slightly soluble
- solubility (descriptive) ([1]; in water): practically insoluble
- solubility at 72 h ([1]; oil or lipid, Caproyl 90, room temperature, read-out: Drug Solubility): 5420 ± 60 µg/mL (≈ 12.5 mM)
- solubility at 72 h ([1]; oil or lipid, Coriander Oil, room temperature, read-out: Drug Solubility): 740 µg/mL (≈ 1.7 mM)
- solubility at 72 h ([1]; oil or lipid, Corn Oil, room temperature, read-out: Drug Solubility): 420 µg/mL (≈ 0.965 mM)
- solubility at 72 h ([1]; oil or lipid, Labrafac CC, room temperature, read-out: Drug Solubility): 1040 ± 10 µg/mL (≈ 2.39 mM)
- solubility at 72 h ([1]; oil or lipid, Lavender Oil, room temperature, read-out: Drug Solubility): 1230 µg/mL (≈ 2.83 mM)
- solubility at 72 h ([1]; oil or lipid, Linseed Oil, room temperature, read-out: Drug Solubility): 790 µg/mL (≈ 1.81 mM)
- solubility at 72 h ([1]; oil or lipid, Mineral Oil, room temperature, read-out: Drug Solubility): 4 µg/mL (≈ 0.00919 mM)
- solubility at 72 h ([1]; oil or lipid, Olive Oil, room temperature, read-out: Drug Solubility): 220 µg/mL (≈ 0.505 mM)
- solubility at 72 h ([1]; oil or lipid, Paraffin Oil, room temperature, read-out: Drug Solubility): 9 µg/mL (≈ 0.0207 mM)
- solubility at 72 h ([1]; oil or lipid, Peanut Oil, room temperature, read-out: Drug Solubility): 2190 µg/mL (≈ 5.03 mM)
- solubility at 72 h ([1]; oil or lipid, Pluro oleique CC 497, room temperature, read-out: Drug Solubility): 1040 ± 20 µg/mL (≈ 2.39 mM)
- solubility at 72 h ([1]; oil or lipid, Soybean Oil, room temperature, read-out: Drug Solubility): 310 µg/mL (≈ 0.712 mM)
- solubility at 72 h ([1]; organic solvent or mixture, 1-methyl-2-pyrrolidinone, room temperature, read-out: Drug Solubility): 458000 µg/mL (≈ 1050 mM)
- solubility at 72 h ([1]; organic solvent or mixture, Cremophore EL, room temperature, read-out: Drug Solubility): 46000 ± 690 µg/mL (≈ 106 mM)
- solubility at 72 h ([1]; organic solvent or mixture, Labrasole, room temperature, read-out: Drug Solubility): 61000 µg/mL (≈ 140 mM)
- solubility at 72 h ([1]; organic solvent or mixture, PEG 400, room temperature, read-out: Drug Solubility): 71600 µg/mL (≈ 164 mM)
- solubility at 72 h ([1]; organic solvent or mixture, Tween 20, room temperature, read-out: Drug Solubility): 55800 ± 870 µg/mL (≈ 128 mM)
- solubility at 72 h ([1]; organic solvent or mixture, Tween 80, room temperature, read-out: Drug Solubility): 49700 ± 410 µg/mL (≈ 114 mM)
- solubility at 72 h ([1]; Water, room temperature, read-out: Drug Solubility): 3.97 µg/mL (≈ 0.00912 mM)
- AUC ([2]; IV 2.5 mg/kg): 1660 ± 498 ng·h/mL
- Cmax ([2]; IV 2.5 mg/kg (solution in DMSO)): 2360 ± 1120 ng/mL
- half-life ([2]; IV 2.5 mg/kg, read-out: T1/2 (terminal biological half-life) (converted)): 1.14 ± 0.91 h
SMILES: Cc1cc(C#N)cc(C)c1Oc1nc(Nc2ccc(C#N)cc2)nc(N)c1Br [Etravirine, 4-[[6-amino-5-bromo-2-[(4-cyanophenyl)amino]-4-pyrimidinyl]oxy]-3,5-dimethyl benzonitrile]
- IC50 (p-gp): 24.2 µM
- solubility in PEG 400 reported in the scientific literature ([3]; PEG 400): 74000 µg/mL (≈ 170 mM)
- ionization constant (pka) [3]: 3.75
- octanol:water partition coefficient (logP) [3]: greater than 5
- Biopharmaceutics Classification System class [3]: class IV
- Biopharmaceutics Classification System class ([3]; listed as etravirine): class IV
- time of median peak concentration ([4]; fasted oral administration): approximately 4.0 hours
- terminal elimination half-life in plasma ([4]; in vivo): 30 to 40 h
- binding to plasma proteins (plasma proteins): highly bound
